Key:
[1] = tested on: TE-9 (Esophageal Squamous Cell Carcinoma); assay: Bliss excess, mean over the matrix (fraction); higher = more synergy
Outline: (§1)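 Cell lines grown in DMEM/F12 or RPMI with 10% FBS were plated in 1536-well plates and held 24 hours at 37°C, 5% CO2 before 72 hours of exposure to two-drug dose matrices, with DMSO typically at 0.2%. CellTiter-Glo 2.0 luminescence gave viability, which was converted to inhibition. Vehicle wells were set to 0 and blank wells to 1. Combination Emax is the second-highest inhibition in the matrix, and Bliss excess is the observed combination effect minus the expected EA + EB − EA·EB, where EA and EB are the single-agent effects.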

AGS (Gastric Carcinoma) [2] = assay: as above
Outline: as §1

[3] = tested on: MDA-MB-361 (Breast Carcinoma); assay: as above
Outline: as §1

[4] = tested on: SK-ES-1 (Ewing's Sarcoma); assay: as above
Outline: as §1

[5] = tested on: MFE-296 (Endometrial Carcinoma); assay: as above
Outline: as §1

KELLY (Neuroblastoma) = assay: as above
Outline: as §1

[6] = tested on: TE-15 (Esophageal Squamous Cell Carcinoma); assay: combination Emax (second highest fraction inhibited in the dose matrix, 72 h); higher = more inhibition; extreme values may be limits of the assay
Outline: as §1

AGS (Gastric Carcinoma) [7] = assay: as above
Outline: as §1

[8] = tested on: MDA-MB-361 (Breast Carcinoma); assay: as above
Outline: as §1

[9] = tested on: KP-1N (Pancreatic Carcinoma); assay: as above
Outline: as §1

[10] = tested on: COLO-205 (Colorectal Carcinoma); assay: as above
Outline: as §1

[11] = tested on: SNU-5 (Gastric Carcinoma); assay: as above
Outline: as §1

[12] = tested on: LU-135 (Small Cell Lung Carcinoma); assay: as above
Outline: as §1

[13] = tested on: HuP-T4 (Pancreatic Carcinoma); assay: as above
Outline: as §1

[14] = tested on: B-CPAP (Thyroid Gland Carcinoma); assay: as above
Outline: as §1

[15] = tested on: MFE-296 (Endometrial Carcinoma); assay: as above
Outline: as §1

[16] = tested on: EC-GI-10 (Esophageal Squamous Cell Carcinoma); assay: as above
Outline: as §1

NOS-1 (Osteosarcoma) = assay: as above
Outline: as §1

[17] = tested on: Calu-3 (Lung Adenocarcinoma); assay: as above
Outline: as §1

[18] = tested on: LS-180 (Colorectal Carcinoma); assay: as above
Outline: as §1
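Wherever Bliss excess, mean over the matrix is given: after 72 h of two-drug dosing.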

Structure (SMILES)	Bliss excess [1]	Bliss excess (AGS (Gastric Carcinoma) [2])	Bliss excess [3]	Bliss excess [4]	Bliss excess [5]	Bliss excess (KELLY (Neuroblastoma))	combination Emax [6]	combination Emax (AGS (Gastric Carcinoma) [7])	combination Emax [8]	combination Emax [9]	combination Emax [10]	combination Emax [11]	combination Emax [12]	combination Emax [13]	combination Emax [14]	combination Emax [15]	combination Emax [16]	combination Emax (NOS-1 (Osteosarcoma))	combination Emax [17]	combination Emax [18]
CC(=O)c1c(C)c2cnc(Nc3ccc(N4CCNCC4)cn3)nc2n(C2CCCC2)c1=O [Palbociclib] + CC1(C)CCC(CN2CCN(c3ccc(C(=O)NS(=O)(=O)c4ccc(NCC5CCOCC5)c([N+](=O)[O-])c4)c(Oc4cnc5[nH]ccc5c4)c3)CC2)=C(c2ccc(Cl)cc2)C1 [Venetoclax] (first compound max 10 µM, 7x7, partner max 1 µM)	-0.035	-0.0493	-0.0751	0.0758	-0.0262	0.0358	0.343	0.356	0.163	0.212	0.492	0.336	0.445	0.163	0.237	0.203	0.387	0.693	0.0931	0.61
CC(=O)c1c(C)c2cnc(Nc3ccc(N4CCNCC4)cn3)nc2n(C2CCCC2)c1=O [Palbociclib] + Cc1c2c(nn1C)CSCc1cc(n(C)n1)CSc1cc(c3ccccc3c1)OCCCc1c(C(=O)O)n(C)c3c-2c(Cl)ccc13 [AZD5991] (first compound max 10 µM, 7x7, partner max 1 µM)	-0.0334	-0.04	-0.0789	-0.0088	-0.0142	0.0123	0.435	0.445	0.586	0.212	0.497	0.347	0.388	0.245	0.427	0.287	0.543	0.925	0.219	0.521
CC(=O)c1c(C)c2cnc(Nc3ccc(N4CCNCC4)cn3)nc2n(C2CCCC2)c1=O [Palbociclib] + Cn1cnc2c(F)c(Nc3ccc(Br)cc3Cl)c(C(=O)NOCCO)cc21 [Selumetinib] (first compound max 10 µM, 7x7, partner max 10 µM)	0.0099	-0.0123	-0.0238	-0.0161	-0.0574	0.09	0.657	0.906	0.154	0.196	0.788	0.649	0.352	0.349	0.356	0.105	0.493	0.826	0.149	0.759
COc1cccc(OCCCN)c1-c1cc(Nc2cnc(C#N)cn2)n[nH]1 [Prexasertib] + C=CCn1c(=O)c2cnc(Nc3ccc(N4CCN(C)CC4)cc3)nc2n1-c1cccc(C(C)(C)O)n1 [AZD1775] (first compound max 1 µM, partner max 1 µM)	0.2	0.195	0.0331	0.0454	0.116	0.0252	0.866	0.901	0.926	0.575	0.908	0.969	0.655	0.882	0.874	0.644	0.956	0.432	0.482	0.819
COc1cccc(OCCCN)c1-c1cc(Nc2cnc(C#N)cn2)n[nH]1 [Prexasertib] + CCc1c2c(nc3ccc(O)cc13)-c1cc3c(c(=O)n1C2)COC(=O)[C@]3(O)CC [SN-38] (first compound max 1 µM, 7x7, partner max 0.3 µM)	0.0438	-0.0467	-0.0298	-0.0081	0.0106	-0.0098	0.921	0.93	0.913	0.64	0.938	1	0.833	0.938	0.968	0.83	1	0.524	0.549	0.759
COc1cccc(OCCCN)c1-c1cc(Nc2cnc(C#N)cn2)n[nH]1 [Prexasertib] + CN(C)CCCOc1ccc(-c2ccc3ncc4c(c3c2)n(C2CCOCC2)c(=O)n4C)cn1 [AZD0156] (first compound max 1 µM, 7x7, partner max 1 µM)	-0.0307	-0.0052	0.0014	0.0075	-0.0163	0.0113	0.831	0.537	0.954	0.298	0.673	0.926	0.554	0.84	0.686	0.583	0.735	0.332	0.409	0.789
COc1cccc(OCCCN)c1-c1cc(Nc2cnc(C#N)cn2)n[nH]1 [Prexasertib] + C[C@@H]1COCCN1C2=NC(=NC(=C2)C3(CC3)[S@](=N)(=O)C)C4=C5C=CNC5=NC=C4 [AZD6738] (first compound max 1 µM, 7x7, partner max 10 µM)	-0.0233	0.0164	-0.018	-0.0132	-0.0456	0.0187	0.874	0.663	0.922	0.324	0.565	0.975	0.634	0.808	0.742	0.554	0.713	0.381	0.405	0.819
COc1cccc(OCCCN)c1-c1cc(Nc2cnc(C#N)cn2)n[nH]1 [Prexasertib] + Cc1cc2ncnn2cc1Nc1ncc2c(n1)n(C1CCOCC1)c(=O)n2C [AZD7648] (first compound max 1 µM, 7x7, partner max 10 µM)	-0.0322	-0.018	-0.0196	-0.0257	-0.0093	-0.0027	0.831	0.48	0.929	0.246	0.675	0.983	0.584	0.839	0.73	0.569	0.713	0.321	0.416	0.789
COc1cccc(OCCCN)c1-c1cc(Nc2cnc(C#N)cn2)n[nH]1 [Prexasertib] + O=C(c1cc(Cc2n[nH]c(=O)c3ccccc23)ccc1F)N1CCN(C(=O)C2CC2)CC1 [Olaparib] (first compound max 1 µM, 7x7, partner max 10 µM)	-0.0425	0.0033	-0.0509	0.0008	-0.0516	-0.0742	0.842	0.426	0.919	0.332	0.573	0.968	0.493	0.851	0.763	0.525	0.78	0.373	0.381	0.724
COc1cc2c(cc1OCCCCCOc1cc3c(cc1OC)C(=O)N1C=C(C)C[C@H]1C=N3)N=C[C@@H]1CC(C)=CN1C2=O [SG3199] + O=C(c1cc(Cc2n[nH]c(=O)c3ccccc23)ccc1F)N1CCN(C(=O)C2CC2)CC1 [Olaparib] (first compound max 0.001 µM, 7x7, partner max 10 µM)	-0.0269	-0.0061	-0.035	-0.0326	-0.0639	0.0142	0.166	0.248	0.0847	0.18	0.0813	0.129	0.354	0.0469	0.217	0.0449	0.198	0.155	0.0759	0.181
CCc1c2c(nc3ccc(O)cc13)-c1cc3c(c(=O)n1C2)COC(=O)[C@]3(O)CC [SN-38] + CN(C)CCCOc1ccc(-c2ccc3ncc4c(c3c2)n(C2CCOCC2)c(=O)n4C)cn1 [AZD0156] (first compound max 0.3 µM, 7x7, partner max 1 µM)	0.0065	-0.0061	-0.063	0.0037	-0.0007	0.0155	0.819	0.814	0.397	0.627	0.509	0.945	0.728	0.96	0.867	0.496	0.776	0.0879	0.319	0.713
C[C@@H](c1ccc2nccn2c1)n1nnc2ncc(-c3cnn(C)c3)nc21 [Savolitinib] + CC1(C)CCC(CN2CCN(c3ccc(C(=O)NS(=O)(=O)c4ccc(NCC5CCOCC5)c([N+](=O)[O-])c4)c(Oc4cnc5[nH]ccc5c4)c3)CC2)=C(c2ccc(Cl)cc2)C1 [Venetoclax] (first compound max 1 µM, 7x7, partner max 1 µM)	-0.0307	-0.0729	-0.0349	-0.0545	-0.0427	-0.0038	0.287	0.0926	0.119	0.13	0.0209	0.847	0.114	0.0793	0.155	0.0764	0.116	0.0631	0.153	0.205
C[C@@H](c1ccc2nccn2c1)n1nnc2ncc(-c3cnn(C)c3)nc21 [Savolitinib] + Cc1c2c(nn1C)CSCc1cc(n(C)n1)CSc1cc(c3ccccc3c1)OCCCc1c(C(=O)O)n(C)c3c-2c(Cl)ccc13 [AZD5991] (first compound max 1 µM, 7x7, partner max 1 µM)	-0.0683	-0.0855	-0.0841	-0.0326	-0.0228	-0.0138	0.282	0.241	0.735	0.194	0.0758	0.937	0.194	0.265	0.211	0.244	0.285	0.742	0.2	0.199
Cn1cnc2c(F)c(Nc3ccc(Br)cc3Cl)c(C(=O)NOCCO)cc21 [Selumetinib] + C=CCn1c(=O)c2cnc(Nc3ccc(N4CCN(C)CC4)cc3)nc2n1-c1cccc(C(C)(C)O)n1 [AZD1775] (first compound max 10 µM, partner max 1 µM)	-0.0343	0.0064	-0.053	-0.0706	-0.059	-0.0658	0.74	0.932	0.819	0.257	0.85	0.638	0.583	0.396	0.472	0.163	0.919	0.818	0.143	0.604

Reference: the supplement of paper PMC11061612
